Experimental data from ChEMBL document CHEMBL1159161, “Synthesis and biological activities of truncated acridone: Structure-activity relationship studies of cytotoxic 5-hydroxy-4-quinolone” (Bioorg Med Chem Lett, 1997).

Experiments:
L1210 = experiment: In vitro antitumor activity against L1210 (murine leukemia) cells.; format: functional, cell-based; conditions: Mus musculus
Human alphaherpesvirus 1 = experiment: Antiviral activity against herpes simplex virus-1.; format: functional, organism-based
HL-60 = experiment: In vitro antitumor activity against HL60 (Human leukemia) cells.; format: functional, cell-based
Human alphaherpesvirus 2 = experiment: Antiviral activity against herpes simplex virus-2.; format: functional, organism-based

Row | SMILES | IC50 (L1210) | IC50 (Human alphaherpesvirus 1) | IC50 (HL-60) | IC50 (Human alphaherpesvirus 2)
1 | COc1cc2nccc(O)c2cc1OC | > 40 µM | > 100 µM | > 30 µM | > 100 µM
2 | COc1ccc2c(O)ccnc2c1 | > 40 µM | > 100 µM | > 30 µM | > 100 µM
3 | COc1cc2nccc(O)c2c(O)c1OC | > 40 µM | > 100 µM | > 30 µM | > 100 µM
4 | COc1cc(C(F)(F)F)cc2nccc(O)c12 | > 40 µM | > 100 µM | > 30 µM | > 100 µM
5 | Oc1cccc2nccc(O)c12 | > 40 µM | 54 µM | > 30 µM | 83 µM
6 | COc1cc(C(F)(F)F)c2c(O)ccnc2c1 | > 40 µM | 29.4 µM | > 30 µM | 29.4 µM
7 | COc1cc2nccc(O)c2c(OC)c1OC | > 40 µM | > 100 µM | > 30 µM | > 100 µM
8 | COc1cc2c(O)ccnc2cc1O | > 40 µM | > 100 µM | > 30 µM | > 100 µM
9 | COc1cc(O)c2c(O)ccnc2c1 | > 40 µM | – | > 30 µM | –
10 | Oc1ccnc2cc(C(F)(F)F)cc(O)c12 | > 40 µM | – | > 30 µM | –
11 | Cc1ccc(O)c2c(O)ccnc12 | > 40 µM | 27.1 µM | > 30 µM | > 100 µM
12 | Nc1nc2c(ncn2COCCO)c(=O)[nH]1 [ACYCLOVIR] | – | 0.2 µM | – | 2.1 µM
13 | Nc1ccn([C@@H]2O[C@H](CO)[C@@H](O)[C@@H]2O)c(=O)n1 [CYTARABINE] | – | 0.3 µM | – | 2 µM
14 | COc1c(OC)c(OC)c2c(c1O)c(=O)c1ccc(O)c(OC)c1n2C [GLYFOLINE] | 26.5 µM | – | 1.4 µM | –

Now from value to compound:

Row | IC50 (L1210) | IC50 (Human alphaherpesvirus 1) | IC50 (HL-60) | IC50 (Human alphaherpesvirus 2) | SMILES
15 | > 40 µM | > 100 µM | > 30 µM | > 100 µM | COc1ccc(OC)c2c(O)ccnc12
16 | > 40 µM | > 100 µM | > 30 µM | > 100 µM | COc1cc2c(c(O)c1OC)c(=O)ccn2C
17 | > 40 µM | > 100 µM | > 30 µM | > 100 µM | COc1cc(OC)c2c(=O)ccn(C)c2c1
18 | > 40 µM | – | > 30 µM | – | COc1cc(OC)c2c(=O)cc[nH]c2c1
19 | > 40 µM | > 100 µM | > 30 µM | > 100 µM | COc1ccc(O)c2c(=O)ccn(C)c12
20 | > 40 µM | > 100 µM | > 30 µM | > 100 µM | COc1ccc(C)c2nccc(O)c12
21 | > 40 µM | > 100 µM | > 30 µM | > 100 µM | COc1cc2c(c(OC)c1OC)c(=O)ccn2C
22 | – | 82.6 µM | 17.7 µM | > 100 µM | COc1ccc(O)c2c(O)ccnc12
23 | > 40 µM | > 100 µM | > 30 µM | > 100 µM | COc1cc2c(=O)ccn(C)c2cc1OC
24 | > 40 µM | > 100 µM | > 30 µM | > 100 µM | COc1ccc(Cl)c2nccc(O)c12
